Tests used:
[1] = test system: influenza virus A/Vladivostok/2/09 (H1N1); assay: Virus inhibitory activity on chicken embryo model (chemical therapeutic index); format: in vivo; conditions: samples 0.0016%–0.2% (0.003–0.4 mg per chicken embryo), Rimantadine 10 µg/mL, Tamiflu 6 µg/mL
Description: Rimantadine® (Olainfarm, Olaine, Latvia), alpha-methyltricyclo[3.3.1.1/.7]decan-1-methanamine (in the form of hydrochloride)) was used as a comparison drug at a dose of 10 µg /mL and Tamiflu® (Oseltamivir, Hoffmann-La Roche, Basel, Switzerland, (3R,4R,5S)-4-acetylamino-5-amino-3-(1-ethylpropoxy)-1-cyclohexene-1-carboxylic acid ethyl […], phosphate)) at a dose of 6 µg /mL.
To determine the chemical therapeutic index (CTI), the virus inhibitory activity of samples was studied at concentrations from 0.0016% to 0.2%, which corresponded to doses of 0.003–0.4 mg per chicken embryo (0.06–8 mg/kg) (Table 2).

[2] = test system: influenza virus A/Vladivostok/2/09 (H1N1); format: in vivo; conditions: compound 0.2%, 0.4 mg/ch.e. (8 mg/kg)
[3] = test system: neuraminidase activity of influenza virus A/Vladivostok/2/09 (H1N1); assay: Effect on neuraminidase activity (fluorescent kit); format: biochemical; conditions: maximum dose 1 mg/100 μL
Description: To determine the effect of lupinine derivatives 1–5 on neuraminidase activity, the maximum dose of 1 mg/100 μL was used. It was established (Figure 3) that compounds 4 and 5 were able to alter the neuraminidase activity of influenza viruses. It was shown that these two triazole-containing lupinines suppressed neuraminidase activity by no more than 40%.
The determination of the neuraminidase activity of the studied samples was carried out using a fluorescent kit in accordance with the manufacturer’s recommendations (AbCam, Cambridge, UK). The non-fluorescent neuraminidase substrate becomes highly fluorescent when cleaved by neuraminidase. The signal is easily read by fluorescence at Ex/Em = ~320/~450 nm.
Figure 3 The influence of the studied samples on neuraminidase activity.

[4] = test system: hemagglutinating activity of influenza A/Vladivostok/2/09 (H1N1) virus; assay: Effect on hemagglutinating activity of influenza virus; conditions: maximum dose 1 mg/100 μL
Description: The hemagglutinating activity of viruses was determined according to the standard method [53] using a 0.75% suspension of chicken erythrocytes. When determining the effect of the studied sample on hemagglutinating properties, the sample in different doses was mixed with the virus, and after 30 min of incubation at 37 °C, the hemagglutinating activity was determined using the standard method.

## COc1ccc(-c2cn(C[C@@H]3CCCN4CCCC[C@H]34)nn2)cc1 [Compound 1, (1S,9aR)-1-{[4-(4-Methoxyphenyl)-1H-1,2,3-triazol-1-yl]methyl}octahydro-2H-quinolizine]
[1]
  Chemical Therapeutic Index of the Studied Sample: 64.0

## Cc1cccc(-c2cn(C[C@@H]3CCCN4CCCC[C@H]34)nn2)c1 [Compound 2, (1S,9aR)-1-{[4-(m-Tolyl)-1H-1,2,3-triazol-1-yl]methyl}octahydro-2H-quinolizine]
[2]
  Decrease in Influenza Virus Infectivity Titer, lg: 0.8 lg
[1]
  Chemical Therapeutic Index of the Studied Sample: 57.0

## c1ccc(-c2cn(C[C@@H]3CCCN4CCCC[C@H]34)nn2)cc1 [Compound 3, (1S,9aR)-1-[(4-Phenyl-1H-1,2,3-triazol-1-yl)methyl]octahydro-2H-quinolizine]
[2]
  Decrease in Influenza Virus Infectivity Titer, lg: 0.0 lg
[1]
  Chemical Therapeutic Index of the Studied Sample: 8.1

## O=Cc1ccc(OCc2cn(C[C@@H]3CCCN4CCCC[C@H]34)nn2)cc1 [Compound 4, 4-({1-[((1S,9aR)-Octahydro-2H-quinolizin-1-yl)methyl]-1H-1,2,3-triazol-4-yl}methoxy)benzaldehyde]
[1]
  Chemical Therapeutic Index of the Studied Sample: 40.0
[3]
  Suppression of neuraminidase activity: no more than 40%

## CCc1cc(C(=O)OCc2cn(C[C@@H]3CCCN4CCCC[C@H]34)nn2)c(O)c(C(C)(C)C)c1 [Compound 5, {1-[((1S,9aR)-Octahydro-2H-quinolizin-1-yl)methyl]-1H-1,2,3-triazol-4-yl}methyl-3-tert-butyl-2-hydroxy-5-ethylbenzoate]
[1]
  Chemical Therapeutic Index of the Studied Sample: >100.0
[3]
  Suppression of neuraminidase activity: no more than 40%
[4]
  Suppression of hemagglutinating activity: no less than 25%

## CC(N)C12CC3CC(CC(C3)C1)C2 (stereo not drawn) [Rimantadine, alpha-methyltricyclo[3.3.1.1/.7]decan-1-methanamine, reference compound]
[1]
  Chemical Therapeutic Index of the Studied Sample: 30

## CCOC(=O)C1=C[C@@H](OC(CC)CC)[C@H](NC(C)=O)[C@@H](N)C1 [Tamiflu, (3R,4R,5S)-4-acetylamino-5-amino-3-(1-ethylpropoxy)-1-cyclohexene-1-carboxylic acid ethyl ether, phosphate, reference compound]
[1]
  Chemical Therapeutic Index of the Studied Sample: 11.0

Source: paper PMC11644009 (Molecules, 2024)
